Results on eleven molecules are retold here after ChEMBL document CHEMBL1145498, “A systematic interaction map of validated kinase inhibitors with Ser/Thr kinases” (Proc Natl Acad Sci U S A, 2007).

For experiment [1], the target named is Calcium/calmodulin-dependent protein kinase kinase 2 (Homo sapiens, UniProt Q96RR4).
Experiment [2] addresses T1, Myotonin-protein kinase (Homo sapiens) (UniProt Q09013).
T1 sequence (whole entry): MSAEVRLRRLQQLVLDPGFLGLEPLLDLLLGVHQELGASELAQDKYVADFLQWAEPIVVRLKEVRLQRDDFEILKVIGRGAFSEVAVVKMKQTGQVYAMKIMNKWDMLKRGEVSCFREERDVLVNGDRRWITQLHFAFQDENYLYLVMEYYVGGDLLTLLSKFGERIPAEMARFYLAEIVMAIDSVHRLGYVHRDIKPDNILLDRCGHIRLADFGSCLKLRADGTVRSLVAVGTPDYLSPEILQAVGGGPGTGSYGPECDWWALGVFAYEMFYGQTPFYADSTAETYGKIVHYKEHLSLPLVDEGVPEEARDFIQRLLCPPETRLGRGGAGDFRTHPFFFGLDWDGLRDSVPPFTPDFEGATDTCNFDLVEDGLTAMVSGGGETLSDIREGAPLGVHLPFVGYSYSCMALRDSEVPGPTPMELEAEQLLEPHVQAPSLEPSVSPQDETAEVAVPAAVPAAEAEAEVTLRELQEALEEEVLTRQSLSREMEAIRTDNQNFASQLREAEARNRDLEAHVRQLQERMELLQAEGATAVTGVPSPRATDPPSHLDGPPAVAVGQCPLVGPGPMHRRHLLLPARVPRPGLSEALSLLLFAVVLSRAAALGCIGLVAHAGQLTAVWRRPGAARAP

In experiment [3] the target is Serine/threonine-protein kinase 26 (Homo sapiens) (UniProt Q9P289).
In experiment [4] the target is Serine/threonine-protein kinase PAK 4 (Homo sapiens) (UniProt O96013).
The target of experiment [5] is Serine/threonine-protein kinase pim-3 (Homo sapiens) (UniProt Q86V86).
For experiment [6], the target named is Cyclin-dependent kinase 16 (Homo sapiens) (UniProt Q00536).
The target in experiment [7] is Casein kinase I isoform gamma-1 (Homo sapiens) (UniProt Q9HCP0).
For experiment [8], the target named is T2, Mitogen-activated protein kinase kinase kinase 5 (Homo sapiens) (UniProt Q99683).
T2 sequence (whole entry): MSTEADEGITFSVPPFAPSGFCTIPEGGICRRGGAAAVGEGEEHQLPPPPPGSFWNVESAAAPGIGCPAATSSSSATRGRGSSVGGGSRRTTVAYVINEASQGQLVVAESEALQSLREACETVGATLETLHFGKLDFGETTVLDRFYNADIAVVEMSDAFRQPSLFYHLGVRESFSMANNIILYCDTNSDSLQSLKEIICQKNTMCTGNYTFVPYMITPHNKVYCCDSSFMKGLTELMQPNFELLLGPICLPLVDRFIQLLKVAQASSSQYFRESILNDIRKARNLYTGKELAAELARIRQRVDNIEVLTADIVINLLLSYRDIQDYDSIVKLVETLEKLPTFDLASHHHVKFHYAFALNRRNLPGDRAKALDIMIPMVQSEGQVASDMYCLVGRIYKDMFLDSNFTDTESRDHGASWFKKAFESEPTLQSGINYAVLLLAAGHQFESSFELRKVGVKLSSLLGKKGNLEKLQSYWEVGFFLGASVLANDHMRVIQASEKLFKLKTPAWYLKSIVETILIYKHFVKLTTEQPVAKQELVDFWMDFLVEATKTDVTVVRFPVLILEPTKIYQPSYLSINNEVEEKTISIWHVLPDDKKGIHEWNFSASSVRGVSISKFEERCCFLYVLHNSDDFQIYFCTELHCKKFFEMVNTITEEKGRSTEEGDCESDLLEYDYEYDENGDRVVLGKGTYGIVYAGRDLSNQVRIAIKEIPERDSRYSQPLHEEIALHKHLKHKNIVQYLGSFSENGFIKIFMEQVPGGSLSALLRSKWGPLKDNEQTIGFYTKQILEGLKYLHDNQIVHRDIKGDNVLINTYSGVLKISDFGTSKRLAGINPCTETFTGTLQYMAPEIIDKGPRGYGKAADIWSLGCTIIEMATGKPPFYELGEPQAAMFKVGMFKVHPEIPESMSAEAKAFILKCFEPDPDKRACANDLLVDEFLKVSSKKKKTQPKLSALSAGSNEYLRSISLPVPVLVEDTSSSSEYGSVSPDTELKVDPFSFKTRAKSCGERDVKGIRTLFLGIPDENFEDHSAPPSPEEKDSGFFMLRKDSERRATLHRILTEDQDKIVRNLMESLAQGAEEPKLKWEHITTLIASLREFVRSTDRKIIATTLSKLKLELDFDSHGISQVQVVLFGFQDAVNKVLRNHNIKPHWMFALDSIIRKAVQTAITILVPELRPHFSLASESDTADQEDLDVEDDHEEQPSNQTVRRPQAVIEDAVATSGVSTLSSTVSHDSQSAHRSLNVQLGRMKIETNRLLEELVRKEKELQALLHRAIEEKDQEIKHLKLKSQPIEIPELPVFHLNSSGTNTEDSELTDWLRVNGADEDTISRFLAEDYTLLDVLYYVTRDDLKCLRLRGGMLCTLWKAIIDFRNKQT

In experiment [9] the target is Ribosomal protein S6 kinase alpha-3 (Homo sapiens) (UniProt P51812).
Experiment [10] concerns the target TRAF2 and NCK-interacting protein kinase (Homo sapiens) (UniProt Q9UKE5).
Experiment [11] deals with T3, Calcium/calmodulin-dependent protein kinase type IV (Homo sapiens) (UniProt Q16566).
T3 sequence (whole entry): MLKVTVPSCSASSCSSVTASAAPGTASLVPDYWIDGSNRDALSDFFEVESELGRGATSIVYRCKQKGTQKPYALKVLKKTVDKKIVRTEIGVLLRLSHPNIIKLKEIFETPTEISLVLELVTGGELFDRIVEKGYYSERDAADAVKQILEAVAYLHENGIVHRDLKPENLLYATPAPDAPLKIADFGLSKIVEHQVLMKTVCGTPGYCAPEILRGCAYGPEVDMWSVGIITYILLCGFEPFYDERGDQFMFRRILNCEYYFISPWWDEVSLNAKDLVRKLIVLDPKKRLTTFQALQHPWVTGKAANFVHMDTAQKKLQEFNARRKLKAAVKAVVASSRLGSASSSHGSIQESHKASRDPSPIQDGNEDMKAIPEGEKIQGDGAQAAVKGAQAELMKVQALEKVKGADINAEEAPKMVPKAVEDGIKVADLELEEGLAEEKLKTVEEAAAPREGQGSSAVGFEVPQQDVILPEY

Chain of Serine/threonine-protein kinase 26 (Homo sapiens) (Q9P289 2-416 limits assumed): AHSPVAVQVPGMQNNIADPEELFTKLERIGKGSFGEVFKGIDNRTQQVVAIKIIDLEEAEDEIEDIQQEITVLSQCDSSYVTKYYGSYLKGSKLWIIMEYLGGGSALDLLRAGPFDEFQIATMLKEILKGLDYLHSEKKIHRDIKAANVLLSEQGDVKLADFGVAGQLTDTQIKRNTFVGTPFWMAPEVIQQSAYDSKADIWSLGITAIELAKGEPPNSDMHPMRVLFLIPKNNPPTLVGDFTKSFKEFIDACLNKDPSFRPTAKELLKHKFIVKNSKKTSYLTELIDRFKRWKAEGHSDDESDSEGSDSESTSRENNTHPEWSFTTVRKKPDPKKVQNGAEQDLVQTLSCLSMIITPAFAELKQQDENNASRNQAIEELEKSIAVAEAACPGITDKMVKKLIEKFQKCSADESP
Chain of Serine/threonine-protein kinase PAK 4 (Homo sapiens) (O96013 whole entry, looked up): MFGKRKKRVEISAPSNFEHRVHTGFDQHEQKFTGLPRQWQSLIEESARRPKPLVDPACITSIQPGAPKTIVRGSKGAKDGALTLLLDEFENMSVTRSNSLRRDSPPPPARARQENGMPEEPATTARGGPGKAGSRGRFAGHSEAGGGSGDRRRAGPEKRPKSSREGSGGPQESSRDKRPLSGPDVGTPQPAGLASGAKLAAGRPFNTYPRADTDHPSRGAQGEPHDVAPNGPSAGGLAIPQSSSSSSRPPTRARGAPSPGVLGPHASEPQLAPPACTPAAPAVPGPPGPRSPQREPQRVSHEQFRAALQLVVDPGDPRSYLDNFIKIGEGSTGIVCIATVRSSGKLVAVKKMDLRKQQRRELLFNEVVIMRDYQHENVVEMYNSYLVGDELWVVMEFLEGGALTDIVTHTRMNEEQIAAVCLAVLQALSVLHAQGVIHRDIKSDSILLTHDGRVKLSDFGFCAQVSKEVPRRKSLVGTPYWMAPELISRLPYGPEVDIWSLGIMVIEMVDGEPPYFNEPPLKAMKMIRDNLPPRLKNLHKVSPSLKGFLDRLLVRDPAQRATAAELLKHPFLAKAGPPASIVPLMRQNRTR
Chain of Casein kinase I isoform gamma-1 (Homo sapiens) (Q9HCP0 whole entry, looked up, canonical isoform): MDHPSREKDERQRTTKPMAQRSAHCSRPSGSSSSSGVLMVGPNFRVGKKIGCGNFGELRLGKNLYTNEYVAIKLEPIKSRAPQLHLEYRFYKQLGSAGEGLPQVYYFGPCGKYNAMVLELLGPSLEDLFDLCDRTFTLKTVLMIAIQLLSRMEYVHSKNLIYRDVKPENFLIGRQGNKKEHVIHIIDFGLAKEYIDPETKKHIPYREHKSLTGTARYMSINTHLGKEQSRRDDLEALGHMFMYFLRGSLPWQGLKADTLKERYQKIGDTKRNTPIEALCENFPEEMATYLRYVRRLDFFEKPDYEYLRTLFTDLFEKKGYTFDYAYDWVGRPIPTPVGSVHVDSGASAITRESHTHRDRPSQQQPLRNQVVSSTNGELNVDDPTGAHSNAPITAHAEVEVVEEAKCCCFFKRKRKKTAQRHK
Chain of Cyclin-dependent kinase 16 (Homo sapiens) (Q00536 whole entry, canonical isoform): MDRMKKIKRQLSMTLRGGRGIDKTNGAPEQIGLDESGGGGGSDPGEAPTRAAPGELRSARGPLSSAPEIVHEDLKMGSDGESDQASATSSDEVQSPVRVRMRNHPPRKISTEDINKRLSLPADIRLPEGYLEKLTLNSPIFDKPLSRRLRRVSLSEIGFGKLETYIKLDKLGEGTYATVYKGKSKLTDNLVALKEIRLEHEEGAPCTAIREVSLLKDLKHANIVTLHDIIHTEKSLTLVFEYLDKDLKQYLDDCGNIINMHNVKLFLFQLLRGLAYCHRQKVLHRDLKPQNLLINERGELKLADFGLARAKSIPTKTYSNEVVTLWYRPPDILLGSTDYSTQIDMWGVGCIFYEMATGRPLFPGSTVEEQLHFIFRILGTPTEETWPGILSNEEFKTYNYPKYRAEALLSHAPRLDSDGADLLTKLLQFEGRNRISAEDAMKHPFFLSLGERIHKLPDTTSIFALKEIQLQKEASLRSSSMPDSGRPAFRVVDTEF
Chain of Calcium/calmodulin-dependent protein kinase kinase 2 (Q96RR4 2-588 limits assumed): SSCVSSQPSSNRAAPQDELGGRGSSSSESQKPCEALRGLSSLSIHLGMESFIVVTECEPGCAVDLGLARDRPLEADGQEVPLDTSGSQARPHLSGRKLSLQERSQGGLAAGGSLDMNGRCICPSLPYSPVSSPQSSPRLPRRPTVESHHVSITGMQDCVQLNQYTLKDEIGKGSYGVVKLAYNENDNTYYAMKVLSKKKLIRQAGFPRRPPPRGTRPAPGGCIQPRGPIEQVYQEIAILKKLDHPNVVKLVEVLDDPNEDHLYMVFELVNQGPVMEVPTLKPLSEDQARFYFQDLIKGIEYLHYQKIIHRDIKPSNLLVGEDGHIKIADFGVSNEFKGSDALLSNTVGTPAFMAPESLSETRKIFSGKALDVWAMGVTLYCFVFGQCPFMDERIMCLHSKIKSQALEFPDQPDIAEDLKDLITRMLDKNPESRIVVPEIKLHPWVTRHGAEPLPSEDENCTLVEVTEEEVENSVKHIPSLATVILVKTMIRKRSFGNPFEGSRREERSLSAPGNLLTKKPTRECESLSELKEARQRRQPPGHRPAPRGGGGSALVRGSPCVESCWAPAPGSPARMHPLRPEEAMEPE
Chain of Ribosomal protein S6 kinase alpha-3 (Homo sapiens) (P51812 whole entry): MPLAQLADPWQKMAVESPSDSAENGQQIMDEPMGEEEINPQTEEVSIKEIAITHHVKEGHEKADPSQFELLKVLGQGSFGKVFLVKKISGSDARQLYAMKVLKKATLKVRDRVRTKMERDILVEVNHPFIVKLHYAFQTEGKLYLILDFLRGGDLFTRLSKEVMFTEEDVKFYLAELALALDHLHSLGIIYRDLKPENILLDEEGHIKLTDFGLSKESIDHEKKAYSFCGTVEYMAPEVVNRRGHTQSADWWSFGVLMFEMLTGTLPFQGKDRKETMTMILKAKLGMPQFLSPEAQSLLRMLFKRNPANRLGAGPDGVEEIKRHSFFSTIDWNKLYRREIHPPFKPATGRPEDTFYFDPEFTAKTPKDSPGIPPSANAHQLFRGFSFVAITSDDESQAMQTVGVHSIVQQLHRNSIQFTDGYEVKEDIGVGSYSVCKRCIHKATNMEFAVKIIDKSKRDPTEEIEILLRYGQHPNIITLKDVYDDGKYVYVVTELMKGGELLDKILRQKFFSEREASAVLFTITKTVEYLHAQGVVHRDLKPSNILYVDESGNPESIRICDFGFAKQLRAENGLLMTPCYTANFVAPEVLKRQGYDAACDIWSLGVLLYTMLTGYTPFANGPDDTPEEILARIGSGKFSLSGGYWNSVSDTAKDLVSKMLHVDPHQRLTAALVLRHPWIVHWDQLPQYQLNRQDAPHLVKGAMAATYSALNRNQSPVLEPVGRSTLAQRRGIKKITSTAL
Chain of TRAF2 and NCK-interacting protein kinase (Homo sapiens) (Q9UKE5 whole entry, looked up): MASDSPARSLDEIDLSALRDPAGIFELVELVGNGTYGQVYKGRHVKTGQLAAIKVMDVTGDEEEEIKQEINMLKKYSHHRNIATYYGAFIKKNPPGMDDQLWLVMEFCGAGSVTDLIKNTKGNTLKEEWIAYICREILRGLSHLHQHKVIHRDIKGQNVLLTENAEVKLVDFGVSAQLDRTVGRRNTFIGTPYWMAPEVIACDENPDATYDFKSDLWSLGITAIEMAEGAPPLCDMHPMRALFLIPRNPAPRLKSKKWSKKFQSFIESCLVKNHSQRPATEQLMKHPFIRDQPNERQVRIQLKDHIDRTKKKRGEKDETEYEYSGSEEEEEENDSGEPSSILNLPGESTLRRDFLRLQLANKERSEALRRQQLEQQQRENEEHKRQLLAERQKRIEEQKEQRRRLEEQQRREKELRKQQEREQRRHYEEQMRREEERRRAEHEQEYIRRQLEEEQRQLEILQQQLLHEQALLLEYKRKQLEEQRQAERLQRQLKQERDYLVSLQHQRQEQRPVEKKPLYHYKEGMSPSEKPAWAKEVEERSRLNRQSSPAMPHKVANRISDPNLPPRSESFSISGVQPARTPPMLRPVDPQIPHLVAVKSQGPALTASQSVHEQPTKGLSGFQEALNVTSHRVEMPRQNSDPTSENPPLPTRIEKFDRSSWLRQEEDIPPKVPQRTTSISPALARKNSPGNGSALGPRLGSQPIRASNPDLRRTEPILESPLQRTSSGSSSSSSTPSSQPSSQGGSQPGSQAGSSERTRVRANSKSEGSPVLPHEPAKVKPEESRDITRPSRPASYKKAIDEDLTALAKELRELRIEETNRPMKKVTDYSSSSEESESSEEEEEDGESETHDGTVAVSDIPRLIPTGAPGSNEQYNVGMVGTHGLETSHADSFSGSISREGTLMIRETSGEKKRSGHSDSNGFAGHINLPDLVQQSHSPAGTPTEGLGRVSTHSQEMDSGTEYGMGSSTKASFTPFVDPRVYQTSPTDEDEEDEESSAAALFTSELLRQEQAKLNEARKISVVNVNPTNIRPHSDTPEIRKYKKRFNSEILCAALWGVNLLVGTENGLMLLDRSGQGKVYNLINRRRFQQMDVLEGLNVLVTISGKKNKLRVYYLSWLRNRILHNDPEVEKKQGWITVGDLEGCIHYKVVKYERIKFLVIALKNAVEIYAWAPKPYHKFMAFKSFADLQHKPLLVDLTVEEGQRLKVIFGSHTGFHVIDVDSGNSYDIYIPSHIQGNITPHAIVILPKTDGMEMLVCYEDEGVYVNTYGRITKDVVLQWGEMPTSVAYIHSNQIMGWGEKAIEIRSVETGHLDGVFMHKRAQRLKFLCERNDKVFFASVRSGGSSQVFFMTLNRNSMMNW

Regarding `CN(C)CCCn1cc(C2=C(c3c[nH]c4ccccc34)C(=O)NC2=O)c2ccccc21` [GF-109203], the ΔTm (usually the change in melting temperature against a reference sample) in experiment [1] was 2.6 °C; in experiment [2] it was 3.9 °C; in experiment [3], 3.1 °C; in experiment [4], 2.5 °C; in experiment [5], 9.1 °C; in experiment [6], 3 °C. The ΔTm in experiment [7] came to 1 °C; in [8], 0.9 °C; in [9] it was 0.8 °C; in experiment [10], 2 °C; in experiment [11] it was 1.1 °C.
`O=C1Nc2ccccc2/C1=C/c1cnc[nH]1`: the ΔTm worked out at 3.1 °C in [1]; 0.8 °C in experiment [2]; 4.3 °C in [3]; 2.2 °C in experiment [4]; 3.3 °C in experiment [5]; 4.7 °C in experiment [6]. Further, the ΔTm in [7] was 1.2 °C; in [8] it was 5 °C; in experiment [9], 1 °C; in [10], 6.1 °C; in [11] it was 0.7 °C.
For `CN(c1cccnc1)c1cc2c(Nc3ccc(F)c(Cl)c3)c(C#N)cnc2cn1`, the ΔTm in experiment [1] was 1.9 °C; in experiment [2], 5.3 °C; in experiment [3], 1.3 °C; in experiment [4], 2.6 °C; in experiment [5] it was -0.2 °C; in [6], 0.1 °C. The ΔTm is 1.4 °C in [7]; 1.4 °C in [8]; 1.7 °C in [9]; -1.2 °C in experiment [10]; -3.4 °C in [11].
Turning to `O=c1cc(N2CCOCC2)oc2c1ccc1ccccc12`, the ΔTm is -0.3 °C in [1]; 0.2 °C in [2]; 0.5 °C in experiment [3]; 0.2 °C in [4]; 2 °C in [5]; -0.4 °C in experiment [6]. Moreover, the ΔTm is 0.4 °C in experiment [7]; 1.2 °C in experiment [8]; 0.3 °C in experiment [9]; 0.3 °C in experiment [10]; -0.1 °C in [11].
For the molecule `Cn1cnc2c(NCc3ccccc3)nc(NCCO)nc21` [OLOMOUCINE], the ΔTm is -0.2 °C in experiment [1]; -0.1 °C in [2]; 0.2 °C in experiment [3]; 0.4 °C in [4]; -0.1 °C in experiment [5]; -0.6 °C in experiment [6]. Moreover, the ΔTm was 0.1 °C in experiment [7]; 0.1 °C in experiment [8]; -0.2 °C in experiment [9]; 0.3 °C in [10]; 0.1 °C in experiment [11].
As to `Cc1ccc(NC(=O)c2cccc(N(C)C)c2)cc1NC(=O)c1ccc(O)cc1`, the ΔTm in experiment [1] was 0.4 °C; in [2] it was -0.8 °C; in [3], 0.7 °C; in experiment [4], 0.4 °C; in [5] it was 0.6 °C; in experiment [6], 0.3 °C. Moreover, the ΔTm in experiment [7] is -0.1 °C; in experiment [8] it was -0.4 °C; in experiment [9] it was -0.1 °C; in experiment [10] it was 0.1 °C; in experiment [11], 0 °C.
On to `N#CCCc1ccc2c(c1)-c1[nH]c3ccc([N+](=O)[O-])cc3c1CC(=O)N2` [ALSTERPAULLONE 2], for which the ΔTm in experiment [1] was 2.3 °C; in experiment [2], 4.8 °C; in experiment [3] it was 3.5 °C; in experiment [4], 4.3 °C; in [5], 1.9 °C; in experiment [6], 8.7 °C. Further, the ΔTm in experiment [7] was 2.4 °C; in experiment [8], 1.8 °C; in [9], 1.4 °C; in [10], 5.4 °C; in [11] it was 0.4 °C.
Regarding `CCN1/C(=C/C(C)=O)Sc2ccc(OC)cc21`, the ΔTm in [1] was 0.4 °C; in experiment [2], 2.5 °C; in experiment [3], -0.3 °C; in experiment [4] it was 0.9 °C; in [5], 0.2 °C; in experiment [6], -0.5 °C. The ΔTm was 2.5 °C in [7]; 0.4 °C in experiment [8]; -0.6 °C in experiment [9]; 0.1 °C in [10]; 0.8 °C in [11].
Regarding `O=C1Nc2ccc(S(=O)(=O)O)cc2/C1=C1/Nc2ccccc2/C1=N\O`, the shift in melting temperature (ΔTm) in experiment [1] was found to be 4.9 °C; in experiment [2], 1.8 °C; in experiment [3], 1.2 °C; in [4], 2.7 °C; in experiment [5] it was 5.1 °C; in [6], 5.9 °C. Further, the ΔTm in experiment [7] came to 4 °C; in [8], 3.8 °C; in experiment [9], 6.1 °C; in [10], 2.4 °C; in experiment [11], 1.3 °C.
Turning to `N#CC(C#N)=Cc1ccc(O)c(O)c1` [TYRPHOSTIN 23], the ΔTm was -0.7 °C in [1]; 0 °C in experiment [2]; 0.3 °C in experiment [3]; -0.1 °C in experiment [4]; 1.6 °C in experiment [5]; -0.7 °C in experiment [6]. The ΔTm stood at 0.4 °C in experiment [7]; 0.1 °C in experiment [8]; 2.7 °C in experiment [9]; 0.2 °C in experiment [10]; 0.4 °C in experiment [11].
For `Cc1c2ccncc2c(C)c2c1[nH]c1ccccc12` [ELLIPTECINE], the thermal shift (ΔTm) in [1] is 1.3 °C; in experiment [2], 3.5 °C; in [3], 0.4 °C; in experiment [4] it was 0.7 °C; in [5], 1.3 °C; in [6] it was -0.4 °C. Further, the ΔTm in experiment [7] is 0.6 °C; in experiment [8], 0.4 °C; in experiment [9], 1.8 °C; in experiment [10], -0.2 °C; in experiment [11], 0.4 °C.
